Measured values: article PMC9366509 (Inorganic chemistry, 2022)
Read-outs that look alike come from different tables or passages of the source.

Columns and labels:
[1] = cited from earlier work
[2] = Pb2+ complex, cited from earlier work
[3] = pH 7.4
[4] = for pPb (pM), -log [Pb]free: [Pb]tot = 10^-6 M, [L]tot = 10^-5 M; for pPb (pM), -log [Pb]free / log K'Pb (conditional stability constant): pH 7.4, 25 °C, I = 0.1 M
[5] = Non-radioactive Pb2+ challenge; assay type: physicochemical; conditions: 20-fold excess non-radioactive Pb, after 72 hours; 203Pb complex
[6] = EDTA challenge; assay type: physicochemical; conditions: 20-fold excess EDTA, after 72 hours; 203Pb complex
[7] = Chelator protonation constants by pH potentiometry; assay type: physicochemical; conditions: I = 0.1 M KCl, 25 °C
[8] = Pb2+ complex, I = 0.1 M KCl, 25 °C

Row | SMILES | pPb (pM), -log [Pb]free [4] | log K'Pb (conditional stability constant) [4] | log K1 (protonation constant) [7] | log K2 (protonation constant) [7] | log K3 (protonation constant) [7] | log K4 (protonation constant) [7] | log KPbHL [4, 8] | log KPbL (thermodynamic stability constant, log KML) [4, 8] | also measured
1 | NC(=O)CN1CCN(CC(N)=O)CCN(CC(N)=O)CCN(CC(N)=O)CC1 [DOTAM, 1,4,7,10-tetrakis(carbamoylmethyl)-1,4,7,10-tetraazacyclododecane] |  |  |  |  |  |  |  |  | log K1 (protonation constant) ([1]; I = 0.1 M NaNO3): 7.70(1); log K2 (protonation constant) ([1]; I = 0.1 M NaNO3): 6.21(1); log KPbL (thermodynamic stability constant, log KML) ([2]; I = 0.1 M NaNO3): >19
2 | O=C(O)CN1CCN(CC(=O)O)CCN(CC(=O)O)CCN(CC(=O)O)CC1 [DOTA, 1,4,7,10-tetraazacyclododecane-1,4,7,10-tetraacetic acid] |  |  |  |  |  |  |  |  | log K1 (protonation constant) ([1]; I = 0.1 M Me4NNO3): 12.09; log K2 (protonation constant) ([1]; I = 0.1 M Me4NNO3): 9.76; log K3 (protonation constant) ([1]; I = 0.1 M Me4NNO3): 4.559; log K4 (protonation constant) ([1]; I = 0.1 M Me4NNO3): 4.09; log KPbL (thermodynamic stability constant, log KML) ([2]; I = 0.1 M NaCl): 25.3(1)[39]; log K'Pb (conditional stability constant) [3]: 15.64
3 | c1ccc(CN2CCOCCOCCN(Cc3ccccn3)CCOCCOCC2)nc1 [NOON-2Py, 7,16-bis(pyridin-2-ylmethyl)-1,4,10,13-tetraoxa-7,16-diazacyclooctadecane] | 12.29 | 11.33 |  |  |  |  |  |  | log K1 (protonation constant) ([1]; I = 0.1 M KCl): 7.44; log K2 (protonation constant) ([1]; I = 0.1 M KCl): 6.26; log K3 (protonation constant) ([1]; I = 0.1 M KCl): 1.38; log KPbL (thermodynamic stability constant, log KML) ([2]; I = 0.1 M KCl): 11.67
4 | c1ccc(CN2CCN(Cc3ccccn3)CCN(Cc3ccccn3)CCN(Cc3ccccn3)CC2)nc1 [Cyclen-4Py, 1,4,7,10-tetrakis(pyridin-2-ylmethyl)-1,4,7,10-tetraazacyclododecane] | 17.88 | 16.93 | 10.05(4) | 7.53(2) | 3.54(7) | 2.23(6) | 2.06(9) | 19.95(3) | complex remained intact, non-radioactive Pb2+ challenge [5]: 98.0 ± 0.4%; complex remained intact, EDTA challenge [6]: 98.1 ± 0.5%
5 | c1ccc(CN2CCOCCN(Cc3ccccn3)CCN(Cc3ccccn3)CCOCCN(Cc3ccccn3)CC2)nc1 [Crown-4Py, 4,7,13,16-tetrakis(pyridin-2-ylmethyl)-1,10-dioxa-4,7,13,16-tetraazacyclooctadecane] | 13.40 | 12.45 | 7.91(4) | 7.33(4) | 4.64(1) | 4.00(6) | 5.22(1) | 13.29(5) | log KPbH2L [4, 8]: 3.50(8)
